Read-outs that look alike come from different tables or passages of the source.
Columns and labels:
in vivo = conditions: rat, po
Description: Long-Evans rats of both sexes were used weighing 135-188 grams. The drugs were suspended in methyl-cellulose (0.5%) and given by gavage. Deaths were recorded during the two weeks following treatment. The LD50 was calculated according to Litchfield and Wilcoxon (1949).

[1] = tested on: writhing reflexes induced by phenylquinone; assay: Analgesic activity: writhing reflexes induced by phenylquinone (Hendershot and Forsaith); assay type: in vivo, Swiss mice
Text: (§1) 3. Anti-inflammatory activity: In connection with the anti-inflammatory activity, both the anti-edema and analgesic activities were studied (namely, the ability to inhibit the painful response from inflamed tissues). The anti-edema activity was studied according to Winter et al. (1962). WINTER C. A., RISLEY E. A. and NUSS G. W., Carrageenin-induced edema in hind
The analgesic activity was studied according to Hendershot and Forsaith (1959). HENDERSHOT L. C. and FORSAITH J., Antagonism of the frequency of phenylquinone induced writhing in the mouse by weak analgesics and non-analgesics. J. Pharmacol. Exp. Ther. 125, 237-240, 1959. Swiss mice of both sexes weighing 18-22 grams were used.

intestine [2] = assay: Gastrointestinal tolerance: ulcerogenic activity on the intestine of rats; conditions: intestinal lesions, by gavage
Description: (§2) Experiments were done in Long-Evans rats of both sexes weighing 150-190 grams. The drugs were suspended in methyl-cellulose (0.5%) and given by gavage. The animals were fasted during the 8 hours before treatment and were sacrificed 18 hours later. They were autopsied and gastrointestinal lesions were scored according to the score system described by Cioli et al. (1967).

[3] = Hydrolysis of GIH in the presence of serum
[4] = tested on: carrageenin-induced paw edema; assay: Anti-edema activity: carrageenin-induced paw edema in rats (Winter et al.); assay type: in vivo, Long-Evans rats; design: Reduction of edema: unit not given here; conditions: for anti-inflammatory activity, comparison of the two drugs: carrageenin edema, rats, by gavage
Text: as §1
paw of the rat as an assay for anti-inflammatory drugs. Proc. Soc. Exp. Biol. Med. 111, 544-547, 1962. […]

intestine [5] = conditions: rat, in vivo, po
Description: as §2

gastric mucosa = assay: Gastrointestinal tolerance: ulcerogenic activity in the gastric mucosa of rats; assay type: in vivo, Long-Evans rats
Description: as §2

[6] = Hydrolysis of GIH in the presence of artificial gastric juices
[7] = tested on: cough produced by acrolein inhalation; assay: Anti-tussive activity: cough produced by acrolein inhalation in guinea pigs (Silvestrini and Pozzatti); assay type: in vivo; conditions: Cavia porcellus, acrolein-induced cough
Description: The test for the anti-tussive activity was done according to Silvestrini and Pozzatti (1960) […] B. and POZZATTI C., Anti-tussive activity and other pharmacological properties of six oxadiazoles. Arch. int. pharmacodyn. 129, 249-263, 1960. Since the details are given in this publication, it should only be recalled that the test is performed on guineapigs by using acrolein inhalation to produce cough. Male guinea pigs were used weighing 300-500 grams. The pharmacokinetic study was performed in Long-Evans rats of both sexes weighing 150 grams. […] The animals were sacrificed at […]

[8] = Pharmacokinetic study: serum samples after oral administration to rats; assay type: in vivo, Long-Evans rats
Description: The test for the anti-tussive activity was done according to S[…]nd Pozzatti (1960) S[…]. and POZZATTI C., Anti-tussive activity and other pharmacological properties of six oxadiazoles. Arch. int. pharmacodyn. 129, 249-263, 1960. Since the details are given in this publication, it should only be recalled that the test is performed on guineapigs by using acrolein inhalation to produce cough. Male guinea pigs were used weighing 300-500 grams. The pharmacokinetic study was performed in Long-Evans rats of both sexes weighing 150 grams. […] The animals were sacrificed at
time intervals and serum samples were taken. […] MIZUTANI M. and NAITO S., Studies on absorption and excretion of drugs. XXIX. Biopharmaceutical studies on guaiacol glycerol ether and related compounds. I. Blood level of guaiacol glycerol ether in rabbit and its binding with serum proteins. Chem. Pharm. Bull. 15, 1422-1426, 1967. Moreoever, ibuprofen and guaiacol were dosed according to the methods of Kaiser and […] (1974) and Mizutani and Naito (1967), respectively. KAISER, D. G. and […]. J., GLC determination of ibuprofen [(+)-2-(p-isobutylphenyl)propionic acid] in plasma. J. Pharm. Sci. 63, 219-221, 1974. MIZUTANI M. and NAITO S., Studies on absorption and excretion of drugs. XXIX. Biopharmaceutical studies on guaiacol glycerol ether and related compounds. […]

Compound: COc1ccccc1OC(=O)C(C)c1ccc(CC(C)C)cc1 (stereo not shown) [GIH, guaiacol p-isobutyl hydratropate]
- LD50 at 336 h (in vivo): 1650 mg/kg
- % reduction in number of writhings ([1]; 1.9 mg/kg p.o.): 11%
- % reduction in number of writhings ([1]; 3.8 mg/kg p.o.): 28%
- % reduction in number of writhings ([1]; 7.5 mg/kg p.o.): 37%
- % reduction in number of writhings ([1]; 15 mg/kg p.o.): 43%
- % reduction in number of writhings ([1]; 30 mg/kg p.o.): 55%
- gastrointestinal toxicity compared with ibuprofen (intestine [2]): less toxic than ibuprofen
- hydrolysis [3]: rapidly hydrolyzed into ibuprofen and guaiacol
- Reduction of edema ([4]; 1.9 mg/kg p.o., 2 hours): 22
- Reduction of edema ([4]; 1.9 mg/kg p.o., 4 hours): 12
- Reduction of edema ([4]; 1.9 mg/kg p.o., 6 hours): 1
- Reduction of edema ([4]; 3.8 mg/kg p.o., 2 hours): 33
- Reduction of edema ([4]; 3.8 mg/kg p.o., 4 hours): 26
- Reduction of edema ([4]; 3.8 mg/kg p.o., 6 hours): 17
- Reduction of edema ([4]; 7.5 mg/kg p.o., 2 hours): 41
- Reduction of edema ([4]; 7.5 mg/kg p.o., 4 hours): 28
- Reduction of edema ([4]; 7.5 mg/kg p.o., 6 hours): 27
- Reduction of edema ([4]; 15 mg/kg p.o., 2 hours): 50
- Reduction of edema ([4]; 15 mg/kg p.o., 4 hours): 45
- Reduction of edema ([4]; 15 mg/kg p.o., 6 hours): 43
- anti-inflammatory activity, comparison of the two drugs [4]: substantially the same anti-inflammatory activity
- % of rats with ulcers (intestine [5]; 25 mg/kg): 0%
- % of rats with ulcers (intestine [5]; 38 mg/kg): 20%
- % of rats with ulcers (intestine [5]; 112 mg/kg): 33%
- % of rats with ulcers (gastric mucosa; 25 mg/kg p.o.): 0%
- % of rats with ulcers (gastric mucosa; 38 mg/kg p.o.): 10%
- % of rats with ulcers (gastric mucosa; 112 mg/kg p.o.): 33%
- effect on the gastric mucosa compared with ibuprofen (gastric mucosa; rats, by gavage): less toxic than ibuprofen
- hydrolysis [6]: no hydrolysis occurs
- minimal effective dose ([7]; po): 25 mg/kg

Compound: COc1ccc2c3c1O[C@H]1[C@@H](O)C=C[C@H]4[C@@H](C2)N(C)CC[C@@]341 [codein, reference compound]
- minimal effective dose ([7]; ip): 2.5 mg/kg

Compound: CC(C)Cc1ccc(C(C)C(=O)O)cc1 (single isomer, unassigned; (+)) [Ibuprofen, (+)-2-(p-isobutylphenyl)propionic acid, reference compound]
- LD50 at 336 h (in vivo): 640 mg/kg
- % reduction in number of writhings ([1]; 5 mg/kg p.o.): 18%
- % reduction in number of writhings ([1]; 10 mg/kg p.o.): 46%
- % reduction in number of writhings ([1]; 20 mg/kg p.o.): 52%
- presence in serum samples of rats treated with GIH [8]: found in the serum samples
- Reduction of edema ([4]; 2.5 mg/kg p.o., 2 hours): 17
- Reduction of edema ([4]; 2.5 mg/kg p.o., 4 hours): 15
- Reduction of edema ([4]; 2.5 mg/kg p.o., 6 hours): 3
- Reduction of edema ([4]; 5 mg/kg p.o., 2 hours): 41
- Reduction of edema ([4]; 5 mg/kg p.o., 4 hours): 31
- Reduction of edema ([4]; 5 mg/kg p.o., 6 hours): 26
- Reduction of edema ([4]; 10 mg/kg p.o., 2 hours): 57
- Reduction of edema ([4]; 10 mg/kg p.o., 4 hours): 47
- Reduction of edema ([4]; 10 mg/kg p.o., 6 hours): 36
- anti-inflammatory activity, comparison of the two drugs [4]: substantially the same anti-inflammatory activity
- % of rats with ulcers (intestine [5]; 16 mg/kg): 0%
- % of rats with ulcers (intestine [5]; 25 mg/kg): 20%
- % of rats with ulcers (intestine [5]; 75 mg/kg): 63%
- % of rats with ulcers (gastric mucosa; 16 mg/kg p.o.): 11%
- % of rats with ulcers (gastric mucosa; 25 mg/kg p.o.): 33%
- % of rats with ulcers (gastric mucosa; 75 mg/kg p.o.): 43%
